# Experimental data from US20120244102A1, “AGENT FOR PREVENTING OR TREATING CROHN'S DISEASE, COMPRISING ORGANIC ACID POLYMER” (SANWA KAGAKU KENKYUSHO CO., LTD., priority 2010, published 2012).
# Tested on: mouse TNBS-induced Crohn's disease model
# Assay: mouse TNBS-induced Crohn's disease model (pathological score, intestinal lesion score)
# Assay type: in vivo
# Conditions: for intestinal lesion score: scale 0-10, control group 8.1
# Procedure: Seven-week-old male BALB/c Cr Slc mice were purchased from Japan SLC, Inc. After 5 days of breeding for taming, the mice were divided into 5 groups so as to eliminate the difference between body weights, and subjected to an experiment.
# The hair on 2 square-cm of the abdomen of the mouse was shaved, and 1% TNBS was applied to the skin. At 7 days after the application of TNBS, the mouse was fixed under anesthesia by halothane inhalation, and 100 μL of 2.0% TNBS was injected from the rectum to initiate intestinal lesions in Crohn's disease.
# In the propagermanium-administered group, 0.015% of the propagermanium was mixed with a standard feedstuff for mice CRF-1 (manufactured by Oriental Yeast Co., Ltd.) and administered by ad libitum feeding from immediately after the injection of TNBS to 3 days after the initiation. The average dose during the period of the administration of the propagermanium was calculated to be about 7.5 mg/kg/day as a dose of the propagermanium per day, from the body weight and food consumption.
# In the prednisolone-administered group as a positive control, prednisolone was administered once a day as 10 mL/kg of 0.5% CMC suspension using an oral canula for mice from immediately after the injection of TNBS to 3 days after the initiation. The dose was set to be 1 mg/kg/day that is the maximum amount of a clinical general dose (30 to 40 mg/day/person).
# In the salazosulfapyridine-administered group as a positive control, salazosulfapyridine was administered twice a day for 3 days as 10 mL/kg of 0.5% CMC suspension using an oral canula for mice from immediately after the injection of TNBS to 3 days after the initiation. Two dose groups: a low dose group (133 mg/kg/day) that is the maximum amount in view of a clinical general dose and a high dose group (400 mg/kg/day) that is effective in rat TNBS models, were set.
# At 1, 2 and 3 days after the TNBS initiation, the pathological score (the total of the scores of weight-loss, diarrhea/loose stool and occult blood/hemorrhage) was evaluated according to the following criteria.
# (A) Weight-loss score (when the body weight before the TNBS initiation is considered to be 100%) • 0: No decrease • 1: Decreased by within 5% • 2: Decreased by 5-10% • 3: Decreased by 10-20% • 4: Decreased by more than 20%
# (B) Diarrhea/loose stool score • 0: Normal. A solid form is maintained. • 2: Semi-solid loose stool. Wet, and readily collapses when being touched. • 4: Diarrhea, with flowability.
# (C) Occult blood/hemorrhage score • 0: Normal. No blood is incorporated in stool. • 2: Occult blood. Blood is incorporated in stool. Perianal is slightly dirty. • 4: Bloody stool. Blood is incorporated in stool. Perianal is dirty with blood.
# At 3 days after the TNBS initiation, Evans Blue was administered intravenously. At 30 minutes after the administration, the mouse was sacrificed by cervical dislocation, from the colon to the anus were excised and the inner cavity was washed with physiological saline, the lumen was opened, and the degree of the lesions was scored. The intestinal lesion score was evaluated by observing the colon by using a stereomicroscope according to the following criteria. • 0: No damage. • 1: Hyperemia • 2: Hyperemia and thickening of gut walls. No ulcer. • 3: Ulcer is present, but is not thickened. • 4: Plural lesion sites are present. • 5: Widespread lesion sites (1 cm or more in total) • 6: Widespread lesion sites (1.5 cm or more in total) • 7: Widespread lesion sites (2 cm or more in total) • 8: Widespread lesion sites (2.5 cm or more in total) • 9: Widespread lesion sites (3 cm or more in total) • 10: Widespread lesion sites (3.5 cm or more in total)
compound,measurement,setting,value
C[C@]12C=CC(=O)C=C1CC[C@@H]1[C@@H]2[C@@H](O)C[C@@]2(C)[C@H]1CC[C@]2(O)C(=O)CO [prednisolone],"pathological score (total of weight-loss, diarrhea/loose stool and occult blood/hemorrhage scores)","1 mg/kg prednisolone oral, 2 days after the initiation",effect was not observed
same,"pathological score (total of weight-loss, diarrhea/loose stool and occult blood/hemorrhage scores)","1 mg/kg prednisolone oral, 3 days after the initiation",effect was observed
same,intestinal lesion score,"prednisolone 1 mg/kg oral, 3 days after the TNBS initiation",5.2
3-oxygermylpropionic acid polymer [propagermanium],"pathological score (total of weight-loss, diarrhea/loose stool and occult blood/hemorrhage scores)","7.5 mg/kg propagermanium mixed in feed, 2 days after the TNBS initiation",significant effect of improving the pathological score was confirmed
same,"pathological score (total of weight-loss, diarrhea/loose stool and occult blood/hemorrhage scores)","7.5 mg/kg propagermanium mixed in feed, 3 days after the TNBS initiation",significant effect of improving the pathological score was confirmed
O=C(O)c1cc(/N=N/c2ccc(S(=O)(=O)Nc3ccccn3)cc2)ccc1O [salazosulfapyridine],"pathological score (total of weight-loss, diarrhea/loose stool and occult blood/hemorrhage scores)",133 mg/kg salazosulfapyridine oral (low dose group),significant improving effect was not observed
same,"pathological score (total of weight-loss, diarrhea/loose stool and occult blood/hemorrhage scores)","400 mg/kg salazosulfapyridine oral (high dose group), 2 days after the initiation",improving effect was found
same,"pathological score (total of weight-loss, diarrhea/loose stool and occult blood/hemorrhage scores)","400 mg/kg salazosulfapyridine oral (high dose group), 3 days after the initiation",improving effect was found
same,intestinal lesion score,"salazosulfapyridine 133 mg/kg oral, 3 days after the TNBS initiation",6.1
same,intestinal lesion score,"salazosulfapyridine 400 mg/kg oral, 3 days after the TNBS initiation",6.8
